Source: patent US20230414610A1, “THERAPIES FOR CANCER USING SMALL MOLECULES THAT BIND TO AND INHIBIT RAIL INTERACTING PROTEINS” (Texas Tech University System, priority 2020, published 2023)

System: breast cancer cells
Assay: Breast cancer cell inhibition in vitro
Type: cell-based
Settings: by inhibiting RLIP

Compound: O=C(N/N=C1/c2ccccc2-c2nc3nonc3nc21)c1ccccc1O [TTUHSC-SS-A4]
- killing of breast cancer cells: kill breast cancer cells at low concentrations

Compound: [H]/N=C(\N)Nc1nc(-c2ccccc2)c2cc(F)ccc2n1 [TTUHSC-SS-B9]
- killing of breast cancer cells: kill breast cancer cells at low concentrations

Compound: O=c1cc(COc2cccc(-n3cnnn3)c2)c2ccccc2[nH]1 [TTUHSC-SS-C2]
- killing of breast cancer cells: kill breast cancer cells at low concentrations

Compound: c1ccc(-c2nnc(NCc3nc4ccccc4[nH]3)c3ccccc23)cc1 [TTUHSC-SS-C4]
- killing of breast cancer cells: kill breast cancer cells at low concentrations

Compound: N#Cc1nc(-c2ccccn2)c2c(c1-c1ccccc1)CCC2 [TTUHSC-SS-E4]
- killing of breast cancer cells: kill breast cancer cells at low concentrations
